The text below walks through data of patent publication US10202418B2, “Hydroxy-ethylene derivatives for the treatment of arthrosis” (MERCK PATENT GMBH, priority 2013, dated 2019).

Starred links: 1 amine or outer side, 2 acyl side, 3 side chain; linkers in the order of their positions; H or OH if unused. Non-standard residues stand in square brackets, D forms with d. Residues, ends and D or L forms follow the SMILES beside them. *: point of attachment. Hexanoyl(5S-NH,4S-OH,6-Ph) = O=C(CC[C@H](O)[C@H](Cc1ccccc1)N[*:1])[*:2]; Sta = CC(C)C[C@H](N)[C@@H](O)CC(=O)O; Isovaleryl = CC(C)CC(=O)* A value given as a limit tells only on which side of the number the result lay.

Assay [1] concerns the target cathepsin D isolated from the human liver (Homo sapiens (Human), UniProt P07339). Briefly: In-vitro fluorescence assay for identification of cathepsin D inhibitors. It is filed as biochemical. The conditions noted are these: cathepsin D 1.4 nM, pH 5.5; values in E notation; read-out: Cath D IC50. The procedure:
In order to identify modulators of cathepsin D activity, a continuous enzymatic test was carried out with a synthetic peptide which carries a fluorescent group (MCA=(7-methoxycoumarin-4-yl)acetyl) which is quenched by energy transfer from a Dpn (2,4 dinitrophenyl) group on the same molecule, in Greiner 384-well nb microtitre plates. Cleavage of the peptidic substrate by cathepsin D causes an increase in the fluorescence intensity. In order to determine the efficacy of substances, the time-dependent increase in the fluorescence intensity in the presence of the substance was compared with the time-dependent increase in fluorescence in the absence of substances. The reference substance used was pepstatin A (Sigma-Aldrich). The substrate used was MCA-GKPILFFRLK(Dnp)d-R—NH2 (Enzo Life Sciences, Lor-rach). The enzyme employed was cathepsin D isolated from the human liver (Sigma-Aldrich) in a final concentration of 1.4 nM. The test was carried out in 100 mM sodium acetate buffer, 1.25% (v/v) of DMSO, 0.25% (w/v) of Chaps, pH 5.5. 2 μl of each substance solution with serially diluted substance concentration were added to in each case 4 μl of cathepsin D solution and incubated at room temperature for 10 min. The reaction was started by addition of 2 μl of substrate solution (final concentration 5 μM). After carrying out a starting-point fluorescence measurement (excitation wavelength 340 nm/emission wavelength 450 nm) using an Envision multilabel reader (Perkin Elmer), the reaction was incubated at room temperature for 60 min. The amount of peptide fragment cleaved off during the reaction time was subsequently measured by determination of the increase in the fluorescence intensity at 450 nm (excitation wavelength 340 nm).
The IC50 values of the compounds according to the invention can be obtained from Table 2 from Example 1.

In a further assay the target is recombinant human renin (Homo sapiens (Human), UniProt P00797). Briefly: In-vitro fluorescence assay for identification of renin-inhibitory activity. Format: biochemical. The conditions noted are these: renin 10 nM, pH 7.2. Here is the method: In order to identify modulators of renin activity, a continuous enzymatic test was carried out with a synthetic peptide which carries a fluorescent group Edans (=(5-(aminoethyl)aminonaphthalenesulfonate) which is quenched by energy transfer from a Dabcyl (4′-dimethylaminoazobenzene-4-carboxylate) group on the same molecule, in Greiner 384-well microtitre plates. Cleavage of the peptidic substrate by renin causes an increase in the fluorescence intensity. In order to determine the efficacy of substances, the time-dependent increase in the fluorescence intensity in the presence of the substance was compared with the time-dependent increase in fluorescence in the absence of substances. The reference substance used was renin inhibitor 2 (Z-Arg-Arg-Pro-Phe-His-Sta-Ile-His N-Boc-Lys methyl ester Z) (Sigma-Aldrich). The substrate used was renin FRET substrate I (DABCYL-g-Abu-Ile-His-Pro-Phe-His-Leu-Val-Ile-His-Thr EDANS) (Anaspec, Fremont Calif.). The enzyme employed was recombinant human renin (Proteos, Kalamazoo, Mich.) in a final concentration of 10 nM. The test was carried out in 50 mM Mops buffer, 1.5% (v/v) of DMSO, 0.1% (w/v) of Igepal®, pH 7.2, 0.5% (w/v) of BSA. 2 μl of each substance solution with serially diluted substance concentration were added to in each case 4 μl of renin solution and incubated at room temperature for 15 min. The reaction was started by addition of 4 μl of substrate solution (final concentration 5 μM). After carrying out a starting-point fluorescence measurement (excitation wavelength 340 nm/emission wavelength 495 nm) using an Envision multilabel reader (Perkin Elmer), the reaction was incubated at 37° C. for 60 min. The amount of peptide fragment cleaved off during the reaction time was subsequently measured by determination of the increase in the fluorescence intensity at 495 nm (excitation wavelength 340 nm).
recombinant human renin, sequence (P00797 67-406): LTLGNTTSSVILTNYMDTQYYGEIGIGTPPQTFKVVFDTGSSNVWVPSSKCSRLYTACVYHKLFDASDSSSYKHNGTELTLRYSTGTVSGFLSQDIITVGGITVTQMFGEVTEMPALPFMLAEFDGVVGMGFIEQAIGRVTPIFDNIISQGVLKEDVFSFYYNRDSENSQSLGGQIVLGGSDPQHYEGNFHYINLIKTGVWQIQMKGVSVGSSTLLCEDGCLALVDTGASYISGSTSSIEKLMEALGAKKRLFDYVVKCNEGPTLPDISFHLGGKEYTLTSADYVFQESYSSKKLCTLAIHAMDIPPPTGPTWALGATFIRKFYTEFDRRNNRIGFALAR

For another assay, the system named is rat knee joint. Briefly: Anti-hyperalgesic effect in animals (carrageenan-injected rat knee joint, Hargreaves test). Particulars: intra-articular, 30 minutes before CAR. Format: in vivo.
Assay [2] has as its system cartilage explant cultures. The conditions noted are these: pH 5.5, explant cultures; cited from earlier work.

cathepsin D isolated from the human liver, sequence (P07339 65-161): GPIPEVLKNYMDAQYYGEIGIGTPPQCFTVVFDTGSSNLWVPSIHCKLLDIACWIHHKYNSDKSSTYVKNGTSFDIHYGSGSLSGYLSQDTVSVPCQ
cathepsin D isolated from the human liver, sequence (P07339 169-412): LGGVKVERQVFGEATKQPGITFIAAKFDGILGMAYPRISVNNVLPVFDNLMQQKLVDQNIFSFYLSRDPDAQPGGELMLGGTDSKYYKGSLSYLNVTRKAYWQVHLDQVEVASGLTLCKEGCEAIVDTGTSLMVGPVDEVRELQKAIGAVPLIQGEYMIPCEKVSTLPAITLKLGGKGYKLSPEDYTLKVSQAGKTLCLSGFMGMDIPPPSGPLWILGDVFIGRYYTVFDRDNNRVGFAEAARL
Method for rat knee joint: In order to induce an inflammation reaction, a carrageenan solution (CAR, 1%, 50 μl) was injected intra-articularly on one side into a rat knee joint. The uninjected side was used for control purposes. Six animals per group were used. The threshold was determined by means of a micrometer screw (medial-lateral on the knee joint), and the thermal hyperalgesia was determined by means of a directed infrared light source by the Hargreaves method (Hargreaves et al., 1988) on the sole of the foot. […] Experimental description of thermal hyperalgesia (Hargreaves test): the experimental animal is placed in a plastic chamber on a quartz sheet. Before testing, the experimental animal is firstly given about 5-15 minutes time to familiarise itself with the environment. As soon as the experimental animal no longer moves so frequently after the familiarisation phase (end of the exploration phase), the infrared light source, whose focus is in the plane of the glass bottom, is positioned directly beneath the rear paw to be stimulated. […] Light reflected by the paw is recorded as long as the experimental animal sits still. Withdrawal of the paw interrupts this reflection, after which the infrared light source is switched off and the time from switching on to switching off is recorded. […]

Regarding `CC[C@H](C)[C@H](NC(=O)CC[C@H](O)[C@H](Cc1ccccc1)NC(=O)[C@@H](NC(=O)[C@H](CC(C)C)NC(=O)CC(C)C)C(C)C)C(=O)N[C@H](C(=O)O)C(C)C` [Compound A21, (S)-2-[(2S,3S)-2-((4S,5S)-4-Hydroxy-5-{(S)-3-methyl-2-[(S)-4-methyl-2-(3-methylbutyrylamino)pentanoylamino]butyrylamino}-6-phenylhexanoyl-amino)-3-methylpentanoylamino]-3-methylbutyric acid] (Isovaleryl-LV[Hexanoyl(5S-NH,4S-OH,6-Ph)]IV-OH), the values for the IC50 (in assay [1]; at recombinant human renin (values in E notation)) were 24 nM and 12 µM, respectively. Regarding `CC[C@H](C)[C@H](NC(=O)CC[C@H](O)[C@H](Cc1ccccc1)NC(=O)[C@@H](NC(=O)Cc1cccc(OC(F)(F)F)c1)C(C)C)C(=O)N[C@H](C(=O)O)C(C)C` [Compound A22, (S)-2-[(2S,3S)-2-((4S,5S)-4-Hydroxy-5-{(S)-3-methyl-2-[2-(3-trifluoro-methoxyphenyl)acetylamino]butyrylamino}-6-phenylhexanoylamino)-3-methylpentanoylamino]-3-methylbutyric acid], the figures for the IC50 (in assay [1]; on recombinant human renin) were 350 nM and over 30 µM, respectively.

Take `C[C@]12C=CC(=O)C=C1CC[C@H]1[C@@H]3C[C@@H](O)[C@](O)(C(=O)CO)[C@@]3(C)C[C@H](O)[C@@]12F` [TAC, Triamcinolone]: the “reduction of CAR-induced swelling” value in the assay with rat knee joint was “capable of reducing the CAR-induced swelling”. `CC(C)CC(=O)N[C@H](C(=O)N[C@H](C(=O)N[C@@H](CC(C)C)[C@@H](O)CC(=O)N[C@@H](C)C(=O)N[C@@H](CC(C)C)[C@@H](O)CC(=O)O)C(C)C)C(C)C` [pepstatin] (Isovaleryl-VV[Sta]A[Sta]-OH): the “inhibition of autodigestion of the cartilage” value in assay [2] is given as “inhibited virtually completely”. `CC(C)c1nc(CN(C)C(=O)N[C@H](C(=O)N[C@@H](Cc2ccccc2)C[C@H](O)[C@H](Cc2ccccc2)NC(=O)OCc2cncs2)C(C)C)cs1` [ritonavir]: the “inhibition of autodigestion of the cartilage” value in assay [2] is reported as “inhibited virtually completely”.
